From US20020002172A1, “PHARMACEUTICAL FORMULATIONS” (priority 1998, published 2002)
Counter-ions that a name gives are not always drawn.

Columns and labels:
[1] = solubility of sildenafil forms in water; format: physicochemical
solubility in saliva = format: physicochemical

Row | solubility of salt form ([1]; medium not stated) | solubility in saliva (solubility in saliva) | solubility in water ([1]; water) | SMILES
1 | highly soluble |  |  | CCCc1nn(C)c2c(=O)[nH]c(-c3cc(S(=O)(=O)N4CCN(C)CC4)ccc3OCC)nc12 [sildenafil citrate]
2 |  | extremely low solubility | extremely low solubility | CCCc1nn(C)c2c(=O)[nH]c(-c3cc(S(=O)(=O)N4CCN(C)CC4)ccc3OCC)nc12 [sildenafil free base, 5-[2-ethoxy-5-(4-methylpiperazin-1-ylsulphonyl)-phenyl] -1,6-dihydro-1-methyl-3-propylpyrazolo [4,3-d]pyrimidin-7-one]
